Assay results published in patent US10287274B2, “5-hydroxytryptamine receptor 7 activity modulators and their method of use” (TEMPLE UNIVERSITY OF THE COMMONWEALTH SYSTEM OF HIGHER …, priority 2013, dated 2019).

Molecular target: Serotonin 5HT7 receptors (Homo sapiens (Human), UniProt P34969)
Assay: Radiolabel Binding Studies for Serotonin 5HT7 receptors
Details: read-out: 5-HT7 % inhib @ 10 uM
Protocol: Radiolabel Binding Studies for Serotonin 5HT7 Receptors, Method 1:
Eleven dilutions (5× assay concentration) of the compound of the disclosure and chlorpromazine are prepared in the Assay Buffer by serial dilution to yield final corresponding assay concentrations ranging from 10 pM to 10 μM.
A stock concentration of 5 nM [^3H]LSD (lysergic acid diethyl amide) is prepared in 50 mM Tris-HCl, 10 mM MgCl2, 1 mM EDTA, pH 7.4 (Assay Buffer). Aliquots (50 μl) of radioligand are dispensed into the wells of a 96-well plate containing 100 μl of Assay Buffer. Duplicate 50-μl aliquots of the compound of the disclosure test and chlorpromazine positive control reference compound serial dilutions are added.
Membrane fractions of cells expressing recombinant 5HT7 receptors (50 μL) are dispensed into each well. […]
The 250-μl reactions are incubated at room temperature for 1.5 hours, then harvested by rapid filtration onto 0.3% polyethyleneimine-treated, 96-well filter mats using a 96-well Filtermate harvester. […] The filter mats are dried, then scintillant is added to the filters and the radioactivity retained on the filters is counted in a Microbeta scintillation counter. […]

Serotonin 5HT7 receptors, sequence (P34969 whole entry): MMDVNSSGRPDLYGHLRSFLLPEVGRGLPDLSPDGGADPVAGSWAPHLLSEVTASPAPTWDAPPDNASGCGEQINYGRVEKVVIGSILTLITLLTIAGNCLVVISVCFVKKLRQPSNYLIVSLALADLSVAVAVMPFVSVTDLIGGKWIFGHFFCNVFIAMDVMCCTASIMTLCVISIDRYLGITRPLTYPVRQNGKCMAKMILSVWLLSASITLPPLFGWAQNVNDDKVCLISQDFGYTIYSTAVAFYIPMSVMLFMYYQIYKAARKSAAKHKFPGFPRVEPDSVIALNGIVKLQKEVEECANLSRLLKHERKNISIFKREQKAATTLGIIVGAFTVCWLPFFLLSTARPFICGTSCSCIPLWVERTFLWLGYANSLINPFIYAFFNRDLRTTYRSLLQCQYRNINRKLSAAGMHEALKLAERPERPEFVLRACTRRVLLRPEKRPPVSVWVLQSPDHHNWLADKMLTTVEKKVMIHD

inhibition at 10 µM: 85.7%
Compound: CC1(C)CC(CCN2CCN(c3ccccc3C#N)CC2)OC1=O (stereo not shown) [Entry 19]
